The text below walks through data of ChEMBL document CHEMBL1201862, “PubChem BioAssay data set” (2004).

Experiment in all cases: DTP human tumour cell line panel, 48 h
Test [1] relates to UACC-257.
The test system of test [2] is SNB-19.
Test [3] relates to A498.
The subject of test [4] is UACC-62.
In test [5] the test system is MDA-N.
Test [6] deals with OVCAR-5.
Test [7] has as its system SNB-75.
The test system of test [8] is HOP-92.
Test [9] relates to DU-145.
Test [10] has as its system SK-MEL-28.
The test system of test [11] is HCT-116.
Test [12] has as its system OVCAR-4.
Test [13] deals with U-251.
Test [14] has as its system HCT-15.
The test system of test [15] is NCI-H23.
In test [16] the test system is TK-10.
For test [17], the system named is OVCAR-8.
The subject of test [18] is UO-31.
The test system of test [19] is NCI-H522.

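Following 48 hours of exposure in 96-well plates, responses at five concentrations were used to interpolate endpoints linearly. Here, GI50 denotes the concentration required for 50% inhibition of growth.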 Activity calls are given as the source filed them. No stated cut-off is given here; in the data, active = GI50 up to about 1.1 µM and inactive = higher.

For `N#CC(C#N)=c1c(=O)c2c3ccccc3cc3cccc1c32`, the GI50 in test [1], in test [2], in test [3], in test [4], in test [5] and in test [6] was > 100 µM (inactive) throughout. For the same molecule, the GI50 – broadly, the concentration giving 50% growth inhibition – in test [7] was > 100 µM (inactive); in test [8], > 100 µM (inactive); in test [9], > 100 µM (inactive); in [10] it was 89.9 µM (inactive); in test [11], 72.6 µM (inactive); in test [12], > 100 µM (inactive). Further, the GI50 was > 100 µM (inactive) in [13], > 100 µM in [14] and > 100 µM (inactive) in test [15].

With `C1=C(c2ccccc2)NC2=N[C@H]3CCCC[C@@H]3N2C1c1ccccc1` (stereo partly drawn), the GI50 in test [16] was 10.4 µM (inactive); in test [1] it was 14.6 µM (inactive); in test [2] it was 14.6 µM (inactive); in test [3], 16.4 µM (inactive); in [4] it was 15 µM (inactive); in test [5] it was 15.5 µM (inactive). Also, the GI50 in test [6] is 13.5 µM (inactive); in test [17], 13.6 µM (inactive); in test [7] it was 11.3 µM (inactive); in [8] it was 12.7 µM (inactive); in test [18] it was 12.2 µM (inactive); in [9], 16.1 µM (inactive). For the same molecule, the GI50 in test [10] was 14.3 µM (inactive); in test [11] it was 7.67 µM (inactive); in test [12], 10.1 µM (inactive); in test [13] it was 13.4 µM (inactive); in [14], 11.4 µM; in [15], 12.7 µM (inactive).

For `CCCC(=O)Nc1cc([N+](=O)[O-])c([N+](=O)[O-])cc1OC`, the GI50 was 17.2 µM (inactive) in test [16]; 18.3 µM (inactive) in [1]; 17 µM (inactive) in test [2]; 15.7 µM (inactive) in test [3]; 18.2 µM (inactive) in [4]; 15.1 µM (inactive) in [5]. The GI50 in test [6] was 32.5 µM (inactive); in [17], 16.3 µM (inactive); in test [7], 16.7 µM (inactive); in test [19], 12.9 µM (inactive); in [18] it was 1.75 µM (inactive); in test [9] it was 17.8 µM (inactive). In addition, the GI50 in test [10] was 17 µM (inactive); in [11], 17.1 µM (inactive); in test [12] it was 15.4 µM (inactive); in test [13], 16.3 µM (inactive); in test [14], 8.87 µM; in test [15] it was 18.2 µM (inactive).

Take `COc1ccc(C2=NN=C3C(c4ccccc4)=Nc4ccccc4N3C2)cc1`: the GI50 in test [16] is 23.5 µM (inactive); in test [1], 27.5 µM (inactive); in [2], 23.8 µM (inactive); in [3], 40.1 µM (inactive); in [4] it was 29.2 µM (inactive); in test [5], 49.1 µM (inactive). Also, the GI50 in test [6] is 54.2 µM (inactive); in test [8], 85.9 µM (inactive); in [18] it was 6.46 µM (inactive); in test [9], 8.18 µM (inactive); in test [10], 12 µM (inactive); in [11] it was 14.6 µM (inactive). In addition, the GI50 in [12] was 6.49 µM (inactive); in test [13], 14.5 µM (inactive); in test [14], 16.9 µM; in test [15], 21 µM (inactive).

For the molecule `CC(C)[C@@H](C)[C@@]1(C)C[C@@H]1[C@@H](C)[C@H]1CC[C@@H]([C@@H]2CC=C3C[C@@H](O)CC[C@]3(C)C2=O)[C@]1(C)CCO`, the GI50 is 11.5 µM (inactive) in test [16]; 14.3 µM (inactive) in test [1]; 12.6 µM (inactive) in [2]; 15.3 µM (inactive) in test [3]; 14.6 µM (inactive) in test [4]; 13.3 µM (inactive) in test [5]. Further, the GI50 in [6] was 11.6 µM (inactive); in test [17], 12.7 µM (inactive); in [7], 5.66 µM (inactive); in [19], 6.9 µM (inactive); in [18], 15.2 µM (inactive); in test [9] it was 15.3 µM (inactive). For the same molecule, the GI50 was 7.53 µM (inactive) in [10]; 10.1 µM (inactive) in test [11]; 12.1 µM (inactive) in [12]; 11 µM (inactive) in test [13]; 5.27 µM in [14]; 14.1 µM (inactive) in test [15].

In the case of `CCOc1cc2c(cc1O)CC[C@@H]1[C@@H]2CC[C@]2(C)C(OS(=O)OC3CC[C@@H]4[C@H]5CCc6cc(O)c(OCC)cc6[C@@H]5CC[C@@]34C)CC[C@@H]12` (stereo partly drawn), the GI50 in test [16] was 19.7 µM (inactive); in [1], 2.24 µM (inactive); in test [2] it was 2.64 µM (inactive); in [3], 13.7 µM (inactive); in test [4] it was 1.19 µM (inactive); in test [5], 0.117 µM (active). Also, the GI50 is 21.4 µM (inactive) in test [6]; 1.38 µM (inactive) in test [17]; 0.51 µM (active) in test [7]; 0.363 µM (active) in test [8]; 5.48 µM (inactive) in [18]; 1.62 µM (inactive) in test [9]. For the same molecule, the GI50 in [10] was 0.6 µM (active); in test [11], 0.577 µM (active); in test [12], 9.2 µM (inactive); in [13] it was 0.33 µM (active); in [14] it was 0.507 µM; in [15], 1.84 µM (inactive).

Regarding `Cc1cc2c(cc1Cl)SC(NNC(=O)c1ccncc1)=NS2(=O)=O`, the GI50 in [16], in test [1], in [2], in test [3], in test [4] and in test [5] was > 10 µM (inactive) throughout. Also, the GI50 in test [6], in test [17], in [7], in [19], in test [9] and in [10] was > 10 µM (inactive) each time. Further, the GI50 was > 10 µM (inactive) in test [11]; > 10 µM (inactive) in [12]; > 10 µM (inactive) in test [13]; > 10 µM in test [14]; > 10 µM (inactive) in test [15].

As to `Cc1nc2cc(C(F)(F)F)ccc2[nH]c1=O`, the GI50 in test [16] is > 100 µM (inactive); in test [1], > 100 µM (inactive); in [2] it was > 100 µM (inactive); in [3], > 100 µM (inactive); in test [4] it was 87.7 µM (inactive); in test [5], > 100 µM (inactive). The GI50 in [6], in test [17], in test [7], in test [8], in [18] and in test [9] was > 100 µM (inactive) in each case. Also, the GI50 is > 100 µM (inactive) in [10]; > 100 µM (inactive) in [11]; > 100 µM (inactive) in [12]; > 100 µM (inactive) in test [13]; > 100 µM in test [14]; > 100 µM (inactive) in test [15].
